This is an account of results in patent publication US10456379B2, “Imidazole-based antimicrobial agents” (priority 2014, dated 2019).

Each structure is given as a SMILES string. Converted amounts (≈) assume the structure as drawn. Where two headings read alike, the source gives them in different places.

Series [1] has as its system Enterococcus faecium (AGR15, ATCCBAA-2127). Briefly: Broth microdilution MIC assay, Enterococcus faecium. The series is classed as cell-based. Particulars: ATCCBAA2127, read-out: Antibacterial activity, EFm (Enterococcus faecium), MIC class. Background: Broth dilution looks for growth in wells or tubes with falling amounts of substance.
In series [2] the test system is vancomycin-resistant Enterococcus faecalis (ATCC51575). Briefly: microbe, parasite or virus in culture. The series is classed as cell-based. Particulars: ATCC51575; vancomycin-resistant Enterococcus faecalis; read-out: Antibacterial activity, VREFs (vancomycin-resistant EFs), MIC class.
Series [3] deals with Streptococcus pneumoniae (Chester, ATCC49619). Briefly: Broth microdilution MIC assay, Streptococcus pneumoniae. Particulars: for Antibacterial activity Streptococcus pneumoniae: MIC class score, MIC100, broth microdilution; for MIC: Streptococcus pneumoniae, ATCC49619, read-out: Antibacterial activity, SP (Streptococcus pneumoniae), MIC class. The series is classed as cell-based.

The subject of series [4] is vancomycin-resistant Enterococcus faecium (ATCC51559). Briefly: microbe, parasite or virus in culture. The series is classed as cell-based.
The subject of series [5] is Enterococcus faecalis (ATCC29212). Briefly: Broth microdilution MIC assay, Enterococcus faecalis. The series is classed as cell-based. Particulars: read-out: Antibacterial activity, EFs (Enterococcus faecalis), MIC class.
The test system of series [6] is Staphylococcus aureus MSSA (Newman). Briefly: Broth microdilution MIC assay, Staphylococcus aureus MSSA (Newman). Particulars: for Antibacterial activity Staphylococcus aureus (MSSA): MIC class score, MIC100, broth microdilution, Newman strain; for MIC: Staphylococcus aureus. The series is classed as cell-based.
The test system of series [7] is daptomycin-resistant Staphylococcus aureus (from MRSA COL). Briefly: Broth microdilution MIC assay, daptomycin-resistant MRSA. Particulars: 24 h, read-out: Antibacterial activity, MRSA strains with additional resistance, D (daptomycin), MIC class. The series is classed as cell-based.
Series [8] relates to platensimycin-resistant Staphylococcus aureus (from MRSA COL). Briefly: Broth microdilution MIC assay, platensimycin-resistant MRSA. The series is classed as cell-based. Particulars: 24 h, read-out: Antibacterial activity, MRSA strains with additional resistance, P (platensimycin), MIC class.
The test system of series [9] is Staphylococcus aureus MRSA (COL). Briefly: Broth microdilution MIC assay, Staphylococcus aureus MRSA (COL). The series is classed as cell-based. Particulars: MIC class score, MIC100, broth microdilution, COL strain.
Series [10] deals with Staphylococcus epidermidis (PCI 1200, ATCC12228). Briefly: Broth microdilution MIC assay, Staphylococcus epidermidis. The series is classed as cell-based. Particulars: read-out: Antibacterial activity, SE (Staphylococcus epidermidis), MIC class.
Series [11] deals with Mycobacterium smegmatis (mc(2)155). Briefly: Broth microdilution MIC assay, Mycobacterium smegmatis.
The test system of series [12] is MRSA (COL) resistant to triclosan. Briefly: Broth microdilution MIC assay, triclosan-resistant MRSA. Particulars: Staphylococcus aureus, read-out: Antibacterial activity, MRSA strains with additional resistance, T (triclosan), MIC class.
The mark [13] stands for this setting: ATCC51559, vancomycin-resistant Enterococcus faecium, read-out: Antibacterial activity, VREFm (vancomycin-resistant EFm), MIC class.
The mark [14] stands for this setting: read-out: Antibacterial activity, MSSA (Staphylococcus aureus MSSA), MIC class.

As for `Cc1[nH]c(-c2ccc(-c3ccccc3OC(F)(F)F)o2)nc1-c1ccccc1` [compound 18], the MIC was in the range of 20 to 50 µg/mL (≈ 52 to 130 µM) in [1]; 20 to 50 µg/mL (≈ 52 to 130 µM) in [2]; 2 to 5 µg/mL (≈ 5.2 to 13 µM) in series [3]; 20 to 50 µg/mL (≈ 52 to 130 µM) in series [4] (setting [13]); 20 to 50 µg/mL (≈ 52 to 130 µM) in [5]. Moreover, the “Antibacterial activity Streptococcus pneumoniae” value in series [3] is given as 3 (MIC100 of 2-5 μg/ml).
For the compound `FC(F)(F)Oc1ccccc1-c1ccc(-c2nc(-c3ccc(Cl)cc3Cl)c[nH]2)o1` [compound 68], the “Antibacterial activity Staphylococcus aureus (MSSA)” value in series [6] is on record as 2 (MIC100 of 11-20 μg/ml). For the same compound, the MIC lay within 11 to 20 µg/mL (≈ 25 to 45.5 µM) in [6] (setting [14]), 6 to 10 µg/mL (≈ 13.7 to 22.8 µM) in [3], 1 to 3 µg/mL (≈ 2.28 to 6.83 µM) in series [7] and 20 to 50 µg/mL (≈ 45.5 to 114 µM) in [8].
Take `Cc1[nH]c(-c2ccc(-c3cccc(C(F)(F)F)c3)o2)nc1-c1ccc(F)cc1` [compound 38]: the “Antibacterial activity Streptococcus pneumoniae” value in [3] is recorded as 3 (MIC100 of 2-5 μg/ml). The MIC was in the range of 2 to 5 µg/mL (≈ 5.18 to 12.9 µM) in series [3]; 20 to 50 µg/mL (≈ 51.8 to 129 µM) in series [4] (Enterococcus faecium, ATCC51559, read-out: Antibacterial activity, VREFm (vancomycin-resistant EFm), MIC class); 20 to 50 µg/mL (≈ 51.8 to 129 µM) in [5].
Regarding `Cc1nc(-c2ccc(-c3ccc(Cl)c(OC(F)(F)F)c3)o2)[nH]c1-c1ccc(F)cc1` [compound 43], in [9], the “Antibacterial activity Staphylococcus aureus (MRSA)” value was 2 (MIC100 of 11-20 μg/ml). Also, the MIC in [5] is 20 to 50 µg/mL (≈ 45.8 to 114 µM).
As for `Cc1[nH]c(-c2ccc(-c3ccc(Cl)c(C(F)(F)F)c3)o2)nc1-c1ccc(F)cc1` [compound 42], the MIC in series [1] lay in the range of 20 to 50 µg/mL (≈ 47.5 to 119 µM); in series [2] it was 11 to 20 µg/mL (≈ 26.1 to 47.5 µM); in series [4] (setting [13]), 20 to 50 µg/mL (≈ 47.5 to 119 µM); in [5], 11 to 20 µg/mL (≈ 26.1 to 47.5 µM).
In the case of `Cc1[nH]c(-c2ccn(-c3ccccc3C(F)(F)F)c2)nc1-c1ccccc1` [compound 33], the MIC in series [3] fell in the range of 6 to 10 µg/mL (≈ 16.3 to 27.2 µM); in [10], 11 to 20 µg/mL (≈ 29.9 to 54.4 µM).
As for `Cc1nc(-c2ccc(-c3ccc(Cl)cc3Cl)o2)[nH]c1-c1ccc(F)cc1` [compound 16], the MIC in series [2] fell in the range of 20 to 50 µg/mL (≈ 51.6 to 129 µM); in [3], 2 to 5 µg/mL (≈ 5.16 to 12.9 µM); in series [4] (setting [13]), 20 to 50 µg/mL (≈ 51.6 to 129 µM); in series [5], 20 to 50 µg/mL (≈ 51.6 to 129 µM).
Consider `Cc1[nH]c(-c2ccc(-c3ccccc3OC(F)(F)F)o2)nc1-c1ccc(F)cc1` [compound 23, 4-(4-Fluoro-phenyl)-5-methyl-2-[5-(2-trifluoromethoxy-phenyl)-furan-2-yl]-1H-imidazole], for which the MIC in [1], in [2], in series [4] (setting [13]) and in [5] was 20 to 50 µg/mL (≈ 49.7 to 124 µM) throughout.
`Cc1[nH]c(-c2ccc(-c3ccccc3F)s2)nc1-c1ccccc1` [compound 15]: the “Antibacterial activity, MS (Mycobacterium smegmatis), MIC class” value in series [11] was 2 (MIC100 of 11-20 μg/ml).
With `Cc1[nH]c(-c2ccc(-c3ccccc3OC(F)(F)F)o2)nc1Cc1ccc(Br)cc1` [compound 30, 4-(4-Bromo-benzyl)-5-methyl-2-[5-(2-trifluoromethoxy-phenyl)-furan-2-yl]-1H-imidazole], the MIC in series [4] (setting [13]) is 20 to 50 µg/mL (≈ 41.9 to 105 µM); in [12] it was 11 to 20 µg/mL (≈ 23 to 41.9 µM); in series [7], 1 to 3 µg/mL (≈ 2.1 to 6.29 µM); in [8], 20 to 50 µg/mL (≈ 41.9 to 105 µM); in series [10] it was 11 to 20 µg/mL (≈ 23 to 41.9 µM).
For `Cc1nc(-c2ccc(-c3ccc4cc(O)ccc4c3)o2)[nH]c1-c1ccccc1` [compound 154], the MIC in [6] (read-out: Antibacterial activity Staphylococcus aureus (MSSA)) fell in the range of 11 to 20 µg/mL (≈ 30 to 54.6 µM). Moreover, the “Antibacterial activity Streptococcus pneumoniae” value in series [3] was 2 (MIC100 of 6-10 μg/ml).
On to `Cc1[nH]c(-c2ccc(-c3ccc(OC(F)(F)F)cc3Cl)o2)nc1-c1ccc(F)cc1` [compound 51], for which the “Antibacterial activity Staphylococcus aureus (MSSA)” value in [6] is 2 (MIC100 of 11-20 μg/ml). For the same compound, the MIC in series [6] (setting [14]) was 11 to 20 µg/mL (≈ 25.2 to 45.8 µM); in series [12], 3 to 10 µg/mL (≈ 6.87 to 22.9 µM); in series [7] it was 1 to 3 µg/mL (≈ 2.29 to 6.87 µM); in series [8], 11 to 20 µg/mL (≈ 25.2 to 45.8 µM).
Turning to `Cc1nc(-c2ccc(-c3ccc(Cl)c(OC(F)(F)F)c3)o2)[nH]c1-c1ccccc1` [compound 41], the MIC lay in the range of 20 to 50 µg/mL (≈ 47.8 to 119 µM) in series [2], 20 to 50 µg/mL (≈ 47.8 to 119 µM) in series [4] (setting [13]), 20 to 50 µg/mL (≈ 47.8 to 119 µM) in [5] and 11 to 20 µg/mL (≈ 26.3 to 47.8 µM) in series [10].
